Tests used:
[1] = molecular target: T1, Human M3 receptor (Homo sapiens, UniProt P20309); experiment: M3 Receptor Radioligand Binding Assay; settings: human M3 receptor membranes, [3H]-N-methyl scopolamine; read-out: M3 binding affinity (Ki class)
T1 construct: purchased Perkin Elmer
Experimental: Biological Characterization M3 Receptor Radioligand Binding Assay
The assay was carried out in 96-well polypropylene plates in a volume of 250 ul. […] The final assay concentration of DMSO was 0.5% (v/v). The plates were sealed and incubated for 2 h at room temperature on an orbital shaker (slow speed). Membranes were harvested onto 96-well unifilter GF/C filter plates pre-treated with 0.5% polyethyleneimine (v/v), using a filter manifold, washed four times with 200 ul of assay buffer. The plates were dried before addition of 50 μl of microscint-0, sealed then read in a Trilux Microbeta scintillation counter.

[2] = molecular target: T2, Human β2 adrenoceptor (Homo sapiens, UniProt P07550); experiment: β2 Adrenoceptor Radioligand Binding Assay; settings: human β2 adrenoceptor membranes, 125-I Cyanopindolol; read-out: B2 binding affinity (Ki class)
T2 construct: purchased Perkin Elmer
Experimental: β2 Adrenoceptor Radioligand Binding Assay
The assay was carried out in 96-well polypropylene plates in a volume of 200 ul. The assay buffer used was 25 mM HEPES, 0.5% BSA (w/v), 1 mM EDTA, 0.02% ascorbic acid (v/v), (pH 7.4). The final assay concentration of DMSO was 0.5% (v/v). The plates were sealed and incubated for 1 h at room temperature on an orbital shaker (slow speed). Membranes were harvested onto 96-well unifilter GF/C filter plates pre-treated with 0.5% polyethyleneimine (v/v), using a filter manifold, washed six times with 200 ul of wash buffer containing 10 mM HEPES and 500 mM NaCl. The plates were dried before addition of 50 μl of microscint-0, sealed then read in a Trilux Microbeta scintillation counter. IC50 values are determined from competition curves using a non-linear curve fitting program. Ki values were calculated from IC50 values by the Cheng and Prusoff equation.

T2 sequence (P07550 whole entry): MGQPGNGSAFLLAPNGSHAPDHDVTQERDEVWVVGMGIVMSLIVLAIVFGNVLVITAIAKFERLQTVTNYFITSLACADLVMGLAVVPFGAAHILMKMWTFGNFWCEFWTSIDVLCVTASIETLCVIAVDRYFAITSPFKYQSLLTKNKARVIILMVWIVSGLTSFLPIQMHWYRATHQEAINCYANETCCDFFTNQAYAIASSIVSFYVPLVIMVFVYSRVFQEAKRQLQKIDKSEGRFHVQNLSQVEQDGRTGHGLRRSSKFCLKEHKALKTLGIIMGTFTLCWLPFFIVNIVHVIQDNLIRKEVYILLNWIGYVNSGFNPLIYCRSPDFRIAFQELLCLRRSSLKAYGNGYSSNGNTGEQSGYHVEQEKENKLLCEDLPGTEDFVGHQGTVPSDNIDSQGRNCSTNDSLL
T1 sequence (P20309 whole entry): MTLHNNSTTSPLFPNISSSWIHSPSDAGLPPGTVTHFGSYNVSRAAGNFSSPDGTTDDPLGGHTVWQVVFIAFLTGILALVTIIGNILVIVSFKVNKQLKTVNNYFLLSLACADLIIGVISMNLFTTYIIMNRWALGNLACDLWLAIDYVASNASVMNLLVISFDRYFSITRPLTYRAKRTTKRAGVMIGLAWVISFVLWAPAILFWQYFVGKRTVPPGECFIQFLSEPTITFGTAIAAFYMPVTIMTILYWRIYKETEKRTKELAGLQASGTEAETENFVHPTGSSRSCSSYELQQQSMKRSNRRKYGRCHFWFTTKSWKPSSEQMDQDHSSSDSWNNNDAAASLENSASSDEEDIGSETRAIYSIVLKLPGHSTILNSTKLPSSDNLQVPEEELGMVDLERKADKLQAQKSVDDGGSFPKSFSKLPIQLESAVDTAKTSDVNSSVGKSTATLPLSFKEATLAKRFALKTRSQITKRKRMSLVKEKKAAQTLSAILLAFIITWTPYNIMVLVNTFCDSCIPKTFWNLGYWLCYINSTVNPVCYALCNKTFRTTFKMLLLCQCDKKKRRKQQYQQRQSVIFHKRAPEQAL

SMILES | Ki [1] | Ki [2]
O=C(CCc1ccc(OCCCCCNC[C@H](O)c2ccc(O)c3[nH]c(=O)ccc23)cc1)N1CC(C(=O)O[C@H]2CN3CCC2CC3)(c2ccccc2)C1 [Compound 5A, (R)-Quinuclidin-3-yl 1-(3-(4-((5-(((R)-2-hydroxy-2-(8-hydroxy-2-oxo-1,2-dihydroquinolin-5-yl)ethyl)amino)pentyl)oxy)phenyl)propanoyl)-3-phenylazetidine-3-carboxylate] | 1 to 10 nM | < 1 nM
O=C(c1ccc(OCCCCCNC[C@H](O)c2ccc(O)c3[nH]c(=O)ccc23)c(-c2ccsc2)c1)N1CCC(C(=O)O[C@H]2CN3CCC2CC3)(c2ccccc2)CC1 [Compound 6, (R)-Quinuclidin-3-yl 1-(4-((5-(((R)-2-hydroxy-2-(8-hydroxy-2-oxo-1,2-dihydroquinolin-5-yl)ethyl)amino)pentyl)oxy)-3-(thiophen-3-yl)benzoyl)-4-phenylpiperidine-4-carboxylate] | > 10 nM | < 1 nM
O=C(Cc1ccc(OCCCCCNC[C@H](O)c2ccc(O)c3[nH]c(=O)ccc23)cc1)N1CC(C(=O)O[C@H]2CN3CCC2CC3)(c2ccccc2)C1 [Compound 6A, (R)-Quinuclidin-3-yl 1-(2-(4-((5-(((R)-2-hydroxy-2-(8-hydroxy-2-oxo-1,2-dihydroquinolin-5-yl)ethyl)amino)pentyl)oxy)phenyl)acetyl)-3-phenylazetidine-3-carboxylate] | 1 to 10 nM | < 1 nM
O=C(CCc1ccc(OCCCCCNC[C@H](O)c2ccc(O)c3[nH]c(=O)ccc23)cc1)N1CCC(C(=O)O[C@H]2CN3CCC2CC3)(c2ccccc2)CC1 [Compound 7, (R)-Quinuclidin-3-yl 1-(3-(4-((5-(((R)-2-hydroxy-2-(8-hydroxy-2-oxo-1,2-dihydroquinolin-5-yl)ethyl)amino)pentyl)oxy)phenyl)propanoyl)-4-phenylpiperidine-4-carboxylate] | < 1 nM | < 1 nM
O=C(c1ccc(OCc2cccc(OCCCCNC[C@H](O)c3ccc(O)c4[nH]c(=O)ccc34)c2)cc1)N1CC(C(=O)O[C@H]2CN3CCC2CC3)(c2ccccc2)C1 [Compound 7A, (R)-Quinuclidin-3-yl 1-(4-((3-(4-(((R)-2-hydroxy-2-(8-hydroxy-2-oxo-1,2-dihydroquinolin-5-yl)ethyl)amino)butoxy)benzyl)oxy)benzoyl)-3-phenylazetidine-3-carboxylate] | 1 to 10 nM | < 1 nM
O=C(Cc1ccc(OCCCCCNC[C@H](O)c2ccc(O)c3[nH]c(=O)ccc23)cc1)N1CCC(C(=O)O[C@H]2CN3CCC2CC3)(c2ccccc2)CC1 [Compound 8, (R)-Quinuclidin-3-yl 1-(2-(4-((5-(((R)-2-hydroxy-2-(8-hydroxy-2-oxo-1,2-dihydroquinolin-5-yl)ethyl)amino)pentyl)oxy)phenyl)acetyl)-4-phenylpiperidine-4-carboxylate] | < 1 nM | < 1 nM
O=C(c1ccc(OCc2ccc(CNC[C@H](O)c3ccc(O)c4[nH]c(=O)ccc34)cc2)cc1)N1CC(C(=O)O[C@H]2CN3CCC2CC3)(c2ccccc2)C1 [Compound 8A, (R)-Quinuclidin-3-yl 1-(4-((4-((((R)-2-hydroxy-2-(8-hydroxy-2-oxo-1,2-dihydroquinolin-5-yl)ethyl)amino)methyl)benzyl)oxy)benzoyl)-3-phenylazetidine-3-carboxylate] | < 1 nM | < 1 nM
O=C(c1ccc(OCCCCCNC[C@H](O)c2ccc(O)c3[nH]c(=O)ccc23)c(F)c1)N1CCC(C(=O)O[C@H]2CN3CCC2CC3)(c2ccccc2)CC1 [Compound 9, (R)-Quinuclidin-3-yl 1-(3-fluoro-4-((5-(((R)-2-hydroxy-2-(8-hydroxy-2-oxo-1,2-dihydroquinolin-5-yl)ethyl)amino)pentyl)oxy)benzoyl)-4-phenylpiperidine-4-carboxylate] | 1 to 10 nM | > 10 nM
O=C(NCc1ccc(CNC[C@H](O)c2ccc(O)c3[nH]c(=O)ccc23)cc1)c1ccc(C(=O)N2CC(C(=O)O[C@H]3CN4CCC3CC4)(c3ccccc3)C2)cc1 [Compound 9A, (R)-Quinuclidin-3-yl 1-(4-((4-((((R)-2-hydroxy-2-(8-hydroxy-2-oxo-1,2-dihydroquinolin-5-yl)ethyl)amino)methyl)benzyl)carbamoyl)benzoyl)-3-phenylazetidine-3-carboxylate] | < 1 nM | 1 to 10 nM
Cc1cc(C(=O)N2CCC(C(=O)O[C@H]3CN4CCC3CC4)(c3ccccc3)CC2)ccc1OCCCCCNC[C@H](O)c1ccc(O)c2[nH]c(=O)ccc12 [Compound 10, (R)-Quinuclidin-3-yl 1-(4-((5-(((R)-2-hydroxy-2-(8-hydroxy-2-oxo-1,2-dihydroquinolin-5-yl)ethyl)amino)pentyl)oxy)-3-methylbenzoyl)-4-phenylpiperidine-4-carboxylate] | 1 to 10 nM | < 1 nM
O=C(NCCCCNC[C@H](O)c1ccc(O)c2[nH]c(=O)ccc12)c1ccc(C(=O)N2CC(C(=O)O[C@H]3CN4CCC3CC4)(c3ccccc3)C2)cc1 [Compound 10A, (R)-Quinuclidin-3-yl 1-(4-((4-(((R)-2-hydroxy-2-(8-hydroxy-2-oxo-1,2-dihydroquinolin-5-yl)ethyl)amino)butyl)carbamoyl)benzoyl)-3-phenylazetidine-3-carboxylate] | 1 to 10 nM | < 1 nM
O=C(Cc1cccc(OCCCCCNC[C@H](O)c2ccc(O)c3[nH]c(=O)ccc23)c1)N1CCC(C(=O)O[C@H]2CN3CCC2CC3)(c2ccccc2)CC1 [Compound 11, (R)-Quinuclidin-3-yl 1-(2-(3-((5-(((R)-2-hydroxy-2-(8-hydroxy-2-oxo-1,2-dihydroquinolin-5-yl)ethyl)amino)pentyl)oxy)phenyl)acetyl)-4-phenylpiperidine-4-carboxylate] | 1 to 10 nM | < 1 nM
O=C(NCCCCNC[C@H](O)c1ccc(O)c2[nH]c(=O)ccc12)c1ccc(C(=O)N2CC(C(=O)O[C@H]3CN4CCC3CC4)(c3ccccc3)C2)s1 [Compound 11A, (R)-Quinuclidin-3-yl 1-(5-((4-(((R)-2-hydroxy-2-(8-hydroxy-2-oxo-1,2-dihydroquinolin-5-yl)ethyl)amino)butyl)carbamoyl)thiophene-2-carbonyl)-3-phenylazetidine-3-carboxylate] | 1 to 10 nM | < 1 nM
Cc1cc(CC(=O)N2CCC(C(=O)O[C@H]3CN4CCC3CC4)(c3ccccc3)CC2)ccc1OCCCCCNC[C@H](O)c1ccc(O)c2[nH]c(=O)ccc12 [Compound 12, (R)-Quinuclidin-3-yl 1-(2-(4-((5-(((R)-2-hydroxy-2-(8-hydroxy-2-oxo-1,2-dihydroquinolin-5-yl)ethyl)amino)pentyl)oxy)-3-methylphenyl)acetyl)-4-phenylpiperidine-4-carboxylate] | 1 to 10 nM | > 10 nM
CCN(CCCNC[C@H](O)c1ccc(O)c2[nH]c(=O)ccc12)C(=O)c1ccc(CCC(=O)N2CC(C(=O)O[C@H]3CN4CCC3CC4)(c3ccccc3)C2)cc1 [Compound 12A, (R)-Quinuclidin-3-yl 1-(3-(4-(ethyl(3-(((R)-2-hydroxy-2-(8-hydroxy-2-oxo-1,2-dihydroquinolin-5-yl)ethyl)amino)propyl)carbamoyl)phenyl)propanoyl)-3-phenylazetidine-3-carboxylate] | 1 to 10 nM | 1 to 10 nM
O=C(Cc1ccc(OCCCCCNC[C@H](O)c2ccc(O)c3[nH]c(=O)ccc23)c(F)c1)N1CCC(C(=O)O[C@H]2CN3CCC2CC3)(c2ccccc2)CC1 [Compound 13, (R)-Quinuclidin-3-yl 1-(2-(3-fluoro-4-((5-(((R)-2-hydroxy-2-(8-hydroxy-2-oxo-1,2-dihydroquinolin-5-yl)ethyl)amino)pentyl)oxy)phenyl)acetyl)-4-phenylpiperidine-4-carboxylate] | < 1 nM | > 10 nM
O=C(CCc1ccc(OCc2ccc(CNC[C@H](O)c3ccc(O)c4[nH]c(=O)ccc34)cc2)cc1)N1CC(C(=O)O[C@H]2CN3CCC2CC3)(c2ccccc2)C1 [Compound 13A, (R)-Quinuclidin-3-yl 1-(3-(4-((4-((((R)-2-hydroxy-2-(8-hydroxy-2-oxo-1,2-dihydroquinolin-5-yl)ethyl)amino)methyl)benzyl)oxy)phenyl)propanoyl)-3-phenylazetidine-3-carboxylate] | 1 to 10 nM | 1 to 10 nM
O=C(Cc1ccc(OCCCCCNC[C@H](O)c2ccc(O)c3[nH]c(=O)ccc23)c(-c2ccsc2)c1)N1CCC(C(=O)O[C@H]2CN3CCC2CC3)(c2ccccc2)CC1 [Compound 14, (R)-Quinuclidin-3-yl 1-(2-(4-((5-(((R)-2-hydroxy-2-(8-hydroxy-2-oxo-1,2-dihydroquinolin-5-yl)ethyl)amino)pentyl)oxy)-3-(thiophen-3-yl)phenyl)acetyl)-4-phenylpiperidine-4-carboxylate] | 1 to 10 nM | < 1 nM
O=C(Cc1ccc(CC(=O)N2CC(C(=O)O[C@H]3CN4CCC3CC4)(c3ccccc3)C2)cc1)N(CCCNC[C@H](O)c1ccc(O)c2[nH]c(=O)ccc12)Cc1ccccc1 [Compound 14A, (R)-Quinuclidin-3-yl 1-(2-(4-(2-(benzyl(3-(((R)-2-hydroxy-2-(8-hydroxy-2-oxo-1,2-dihydroquinolin-5-yl)ethyl)amino)propyl)amino)-2-oxoethyl)phenyl)acetyl)-3-phenylazetidine-3-carboxylate] | < 1 nM | < 1 nM
